Laboratory results as given in patent publication US20200346957A1, “BIOFILM […] TO MICROBIAL DESTRUCTION” (DRIPPING WET WATER, INC., priority 2019, published 2020).

Test system: biofilm within an infected cut
Test: Chlorine dioxide disrupts biofilm within an infected cut (Example 4)
Format: in vivo
Settings: retreated every 12 hours, after 36 hours
Protocol: FIGS. 3A, 3B, 3C, and 3D are photographs that show the progression of an infected cut at 0 hours, 12 hours, 24 hours, and 36 hours, respectively.
FIGS. 4A, 4B, 4C, and 4D are photographs that show the progression of an infected cut at 0 hours, 12 hours, 24 hours, and 36 hours, respectively.
Chlorine Dioxide and CURAD Antibacterial Bandages (benzalkonium chloride) are used in this example. The first of two infected cuts is exposed to 100 ppm of chlorine dioxide for 1 minute before the benzalkonium chloride bandage is applied. The second infected cut is not exposed to chlorine dioxide before the benzalkonium chloride bandage is applied. Both cuts are retreated every 12 hours. […] FIG. 4 illustrates that after 36 hours the second cut's infection, not treated with chlorine dioxide, actually increases.

| Compound | progress of the cut's infection (FIG. 3) (infected cut exposed to 100 ppm chlorine dioxide for 1 minute before benzalkonium chloride bandage) | progress of the cut's infection (FIG. 4) (infected cut with benzalkonium chloride bandage only, no chlorine dioxide) |
| --- | --- | --- |
| [O][Cl+][O-] [chlorine dioxide] | significantly reduced |  |
| benzalkonium chloride |  | no apparent effect |
